# Measured values published in publication PMC11783601, “Analogue-Sensitive Inhibition of Histone Demethylases Uncovers Member-Specific Function in Ribosomal Protein Synthesis” (Journal of the American Chemical Society, 2025).
# Experiments:
# [1] = target: T1, KDM4A-F185A (Homo sapiens, UniProt O75164, F185A); test: MALDI-MS end-point demethylase assay on H3K9me3 peptide; type: biochemical; settings: H3K9me3 peptide, 200 µM 2OG, fixed concentration of NOG analogue
# T1 construct: human KDM4A-jmjC domain (catalytic domain of KDM4A); 6xHis (N); host or cells: E. coli BL21 (DE3)
# T1 sequence (O75164 142-308 F185A limits assumed): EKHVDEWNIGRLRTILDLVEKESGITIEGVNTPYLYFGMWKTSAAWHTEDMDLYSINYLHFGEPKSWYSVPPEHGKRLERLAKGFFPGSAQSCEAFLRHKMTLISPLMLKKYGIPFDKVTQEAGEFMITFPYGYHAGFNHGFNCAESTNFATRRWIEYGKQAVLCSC
# Source text: To develop an appropriate inhibitor, we selected N-oxalyl glycine (NOG, 2) scaffold because of its structural similarity with 2OG and the ability to inhibit 2OG-utilizing enzymes including KDMs (Figure 1C).[29]−[31] Substituting −CH2– at C3 of 2OG with −NH– in NOG prevents its oxidative decarboxylation by KDMs, making the inhibitor cofactor-competitive. […] We synthesized a panel of eight NOG analogues (3–10), derived from L-amino acids, carrying varied steric substituents at C4, with the reasoning that a bulky substituent at C4 would selectively fit into the expanded pocket of F185A over wild type KDM4A (Figures 2B and S1–S6, Schemes S1 and S2). The inhibitory effect of each compound was determined based on the extent of enzyme-catalyzed demethylation of a canonical peptide substrate corresponding to the N-terminus of histone 3 carrying trimethylated lysine at position 9 (H3K9me3). […] Such orthogonal inhibition of the engineered demethylase constitutes a powerful chemical probe to study the functions of a specific member of an enzyme family without issues of off-target activity. […]
# assay (Biorad) kit with BSA concentrations as a standard. […]
# 8. Demethylase activity of the wild type and mutant KDM4 proteins on peptide substrate To monitor enzymatic activity, a demethylase activity assay was optimized and then observed through MALDI-TOF.7 Each histone demethylase assay sample included either wild type or mutant enzyme (10µM KDM4A, 7.5µM KDM4C, 10µM KDM4D, or 1µM KDM4E), 10 µM peptide, 200 µM 2OG, 50 mM Tris pH 8, […], 0-200µM NOG analogue, and 2 mM L-ascorbic acid with a total assay volume of 10 µL. Fe(II) supplement and L-ascorbic acid […]
# Lastly, the 2OG and peptide were […]
# positive mode and analyzed on Bruker FlexAnalysis software. The percent demethylated peptide […]
# the multiple demethylation events on the peptide. […]
# varying concentrations (0-10 µM). […] The fluorescence intensity was measured with excitation = 340 nm and emission = 490 nm on a TECAN Infinite M1000Pro. […]
# The set up and analysis for IC50 of L-Leu NOG against KDM4A F185A enzyme was similar to that described in the coupled fluorescence assay section, but adjusted to function as an end point assay. […]
# and varying concentration of compounds (NOGs 6, 9 and 10) and a substrate cocktail (200 µM 2OG and 60 µM H3K9me3 peptide). Different concentrations of NOG 6 were measured at one time point ranging for 1-5 hours. For 9 and 10, the same set-up remained, but enzymatic activity was measured via MALDI-TOF analysis, and relative activity and inhibition was calculated for different NOG concentrations as described above. […]
# and analyzed on Bruker FlexAnalysis software. The percent demethylated peptide was calculated by first multiplying the K27me1 peak by 2 and the K27me0 peak by 3 to account for the multiple
# [2] = target: T2, PHD2 (EGLN1) (Homo sapiens, UniProt Q9GZT9); test: MALDI-based assay EGLN1 prolyl hydroxylation of peptide; type: biochemical; settings: MALDI-TOF, peptide substrate
# T2 construct: Full length EGLN1 construct plasmid with; TEV-His (N); host or cells: E. coli BL21 (DE3)
# Description: demethylation events on the peptide. The percent peak area was calculated, and the K27me2, me1,
# and me0 peaks were summed to get the relative percent demethylated peptide.
# MALDI-based assay for FTO and ALKBH5: To determine the enzymatic activity of FTO and
# ALKBH5 recombinant proteins in the presence of L-Leu NOG 6, a previously published methods
# were utilized.15, 18 Briefly,10 µM of each protein was incubated in the presence of 10 µM RNA
# 7.5, 150 mM KCl, 50 µM L-Leu NOG or equivalent volume of water in 10 µL aliquots. The
# samples were placed on ice for 10 minutes followed by addition of 200 µM 2OG or equivalent
# volume of water. After incubation at 37 °C for 30 minutes, samples were desalted with 3 µL of BT
# spotted on a MALDI plate with 1uL sample and 1uL of 3-HPA matrix and monitored with Bruker
# FlexControl in the reflectron negative mode and analyzed on Bruker FlexAnalysis software.
# Relative inhibition was monitored via assessing percent product decrease with L-Leu NOG
# MALDI-based assay for C14orf169 (NO66) and MINA: To monitor the enzymatic activity of […]
# 1 µL S-DHB matrix were spotted on a MALDI plate and monitored with Bruker FlexControl in
# the reflectron positive mode and analyzed on Bruker FlexAnalysis software. […]
# was monitored via assessing percent product decrease with L-Leu NOG samples compared to no […]
# monitored following a reported method.19 To monitor the enzymatic activity of EGLN1 and 3 […]
# T2 sequence (Q9GZT9 whole entry): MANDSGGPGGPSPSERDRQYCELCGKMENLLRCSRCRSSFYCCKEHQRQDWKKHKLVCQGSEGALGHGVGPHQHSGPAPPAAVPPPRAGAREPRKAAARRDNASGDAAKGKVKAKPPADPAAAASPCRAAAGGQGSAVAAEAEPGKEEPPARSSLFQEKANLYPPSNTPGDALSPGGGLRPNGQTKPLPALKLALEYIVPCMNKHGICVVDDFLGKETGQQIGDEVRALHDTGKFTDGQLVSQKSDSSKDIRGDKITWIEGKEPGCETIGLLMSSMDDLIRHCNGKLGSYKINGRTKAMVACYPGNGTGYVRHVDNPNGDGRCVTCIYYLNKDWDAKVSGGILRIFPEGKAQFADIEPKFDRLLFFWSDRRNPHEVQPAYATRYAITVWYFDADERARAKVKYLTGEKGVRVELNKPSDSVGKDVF
smiles,measurement,setting,value
"CC(C)CC(NC(=O)C(=O)O)C(=O)O (centres unmarked) [compound 6, N-oxalyl leucine]",inhibition of F185A mutant demethylase activity (MALDI-MS),[1],complete inhibition
same,inhibition of PHD2,[2],No inhibition
